Experimental data reported in ChEMBL document CHEMBL1124647, “Conformational analysis and molecular modeling of 1-phenyl-, 4-phenyl-, and 1-benzyl-1,2,3,4-tetrahydroisoquinolines as D1 dopamine receptor ligands” (J Med Chem, 1989).

Columns and labels:
D(1A) dopamine receptor = D(1A) dopamine receptor (Homo sapiens, UniProt P21728); experiment: Binding potency of compound for Dopamine receptor D1 by displacing [3H]SCH-23390 radioligand
D(2) dopamine receptor = D(2) dopamine receptor (Homo sapiens, UniProt P14416); experiment: Binding potency of compound for Dopamine receptor D2 by displacement of [3H]spiperone
D(2) dopamine receptor, sequence (P14416 whole entry): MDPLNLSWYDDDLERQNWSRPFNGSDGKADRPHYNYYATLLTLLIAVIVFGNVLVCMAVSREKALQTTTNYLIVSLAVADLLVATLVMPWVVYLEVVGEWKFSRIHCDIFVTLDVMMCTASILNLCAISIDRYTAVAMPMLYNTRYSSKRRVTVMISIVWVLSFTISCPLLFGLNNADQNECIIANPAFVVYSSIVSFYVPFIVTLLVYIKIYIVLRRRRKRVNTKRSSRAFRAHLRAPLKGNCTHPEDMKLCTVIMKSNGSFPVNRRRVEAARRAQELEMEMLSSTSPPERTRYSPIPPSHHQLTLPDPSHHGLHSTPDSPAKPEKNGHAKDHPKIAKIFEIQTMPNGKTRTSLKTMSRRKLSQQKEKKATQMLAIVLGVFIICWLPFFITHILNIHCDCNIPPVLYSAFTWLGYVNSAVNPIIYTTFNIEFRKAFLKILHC

[1] = DSAC inhibitory potency obtained by the conversion of [32P]-ATP to [32P]-cAMP

D(1A) dopamine receptor, sequence (P21728 whole entry): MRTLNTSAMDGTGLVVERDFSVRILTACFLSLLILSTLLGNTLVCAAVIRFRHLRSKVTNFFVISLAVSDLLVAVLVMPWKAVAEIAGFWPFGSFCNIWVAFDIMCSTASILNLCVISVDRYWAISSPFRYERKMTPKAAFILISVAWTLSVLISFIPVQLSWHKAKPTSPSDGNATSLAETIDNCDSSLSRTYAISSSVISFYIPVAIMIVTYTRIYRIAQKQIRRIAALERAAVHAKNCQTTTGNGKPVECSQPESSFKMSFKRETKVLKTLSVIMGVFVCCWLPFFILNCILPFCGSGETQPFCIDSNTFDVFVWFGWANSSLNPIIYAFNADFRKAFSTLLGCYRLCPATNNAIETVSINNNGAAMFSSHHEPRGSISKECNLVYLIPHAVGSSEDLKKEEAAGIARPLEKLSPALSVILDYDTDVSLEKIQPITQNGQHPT

## CCCN1CCc2cc(Cl)c(O)cc2[C@@H]1c1ccccc1
D(1A) dopamine receptor
  Ki: 178 nM
D(2) dopamine receptor
  Ki: 1910 nM
[1]
  Log Ki: -6.69

## Oc1cc2c(cc1Cl)CNC[C@H]2c1ccccc1
D(1A) dopamine receptor
  Ki: 282 nM
D(2) dopamine receptor
  Ki: 1820 nM
[1]
  Log Ki: -6.2

## CN1CCc2cc(Cl)c(O)cc2[C@@H](c2ccccc2)C1 [SCH-23390]
[1]
  Log Ki: -9.33

## Oc1cc2c(cc1Cl)CCN[C@H]2c1ccccc1
D(1A) dopamine receptor
  Ki: 141 nM
D(2) dopamine receptor
  Ki: 3720 nM
[1]
  Log Ki: -6.96

## CN1CCc2cc(Cl)c(O)cc2[C@@H]1c1ccccc1
D(1A) dopamine receptor
  Ki: 6.61 nM
D(2) dopamine receptor
  Ki: 1860 nM
[1]
  Log Ki: -8.18

## CN1CCc2cc(Cl)c(O)cc2[C@@H]1Cc1ccccc1
D(1A) dopamine receptor
  Ki: 26.9 nM
D(2) dopamine receptor
  Ki: 145 nM
[1]
  Log Ki: -8.2

## CN1Cc2cc(Cl)c(O)cc2[C@H](c2ccccc2)C1
D(1A) dopamine receptor
  Ki: 87.1 nM
D(2) dopamine receptor
  Ki: 263 nM
[1]
  Log Ki: -6.99

## CN1CCc2cc(Cl)c(O)cc2[C@H]1c1ccccc1
D(1A) dopamine receptor
  Ki: 447 nM
D(2) dopamine receptor
  Ki: 19100 nM
[1]
  Log Ki: -6.25
